Experimental findings from ChEMBL document CHEMBL4732050, “1,2,4-Oxadiazole topsentin analogs as staphylococcal biofilm inhibitors targeting the bacterial transpeptidase sortase A” (Eur J Med Chem, 2021) are described below.

The test system of data set [1] is Staphylococcus aureus. Nature of the data set: Antibacterial activity against Staphylococcus aureus ATCC 25923 after 24 hrs by microdilution method. Type of data set: functional. For orientation: Broth dilution looks for growth in wells or tubes with falling amounts of substance.
The subject of data set [2] is Staphylococcus aureus. Nature of the data set: Antibacterial activity against Staphylococcus aureus ATCC 6538 after 24 hrs by microdilution method. Type of data set: functional.
The test system of data set [3] is Pseudomonas aeruginosa. Nature of the data set: Antibacterial activity against Pseudomonas aeruginosa ATCC 15442 after 24 hrs by microdilution method. Type of data set: functional.
For data set [4], the system named is Escherichia coli. Nature of the data set: Antibacterial activity against Escherichia coli ATCC 25922 after 24 hrs by microdilution method. Type of data set: functional.
Data set [5] deals with Staphylococcus aureus. Nature of the data set: Antibiofilm activity against Staphylococcus aureus ATCC 25923 after 24 hrs by crystal violet staining based assay. Type of data set: functional.
Data set [6] has as its system Staphylococcus aureus. Nature of the data set: Antibiofilm activity against Staphylococcus aureus ATCC 6538 at 100 ug/ml after 24 hrs by crystal violet staining based assay. Type of data set: functional.
Data set [7] has as its system Pseudomonas aeruginosa. Nature of the data set: Antibiofilm activity against Pseudomonas aeruginosa ATCC 15442 after 24 hrs by crystal violet staining based assay. Type of data set: functional.
Data set [8] deals with Escherichia coli. Nature of the data set: Antibiofilm activity against Escherichia coli ATCC 25922 after 24 hrs by crystal violet staining based assay. Type of data set: functional.
Data set [9] deals with Escherichia coli. Nature of the data set: Antibiofilm activity against Escherichia coli ATCC 25922 at 100 ug/ml after 24 hrs by crystal violet staining based assay. It is filed as functional.
For data set [10], the system named is Pseudomonas aeruginosa. Nature of the data set: Antibiofilm activity against Pseudomonas aeruginosa ATCC 15442 at 100 ug/ml after 24 hrs by crystal violet staining based assay. It is filed as functional.
In data set [11] the test system is Staphylococcus aureus. Nature of the data set: Antibiofilm activity against Staphylococcus aureus ATCC 25923 at 100 ug/ml after 24 hrs by crystal violet staining based assay. It is filed as functional.
Data set [12] in a line: Inhibition of Staphylococcus aureus ATCC 25923 sortase A by FRET assay.
For a further data set, the system named is HS27. Nature of the data set: Cytotoxicity against human Hs27 cells assessed as cell viability at 0.1 to 1 uM after 72 hrs by SRB assay. Type of data set: cell-based. The conditions noted are these: hs27, 72 h, dose 0.1-1 µM. A general note: Sulforhodamine B stains cellular protein and so reports cell mass.
In data set [13] the test system is Staphylococcus aureus. Nature of the data set: Antibiofilm activity against Staphylococcus aureus ATCC 6538 after 24 hrs by crystal violet staining based assay. It is filed as functional.

A word on the MIC: it is the lowest concentration found to suppress growth. A low value points to greater potency. As a reminder, the inhibition is the relative decrease from the control value, in per cent. Read a low inhibition as a weak effect. Usually IC50 stands for the midpoint of a concentration-inhibition curve.

Consider `COc1ccc2c(c1)c(C(=O)c1nc(-c3cn(C)c4ccccc34)no1)cn2C`, for which the MIC against Staphylococcus aureus [1], in the data set with Staphylococcus aureus [2], against Pseudomonas aeruginosa [3] and against Escherichia coli [4] was more than 100 µg/mL in each case. The MBIC50 stood at 33.1 µM in the data set on Staphylococcus aureus [5], 30 µM in the data set on Pseudomonas aeruginosa [7] and 55.4 µM in the data set with Escherichia coli [8]. In the data set on Staphylococcus aureus [6], this compound registered an inhibition at 100 µg/mL of less than 15%.
On to `Cn1cc(C(=O)c2nc(-c3cn(C)c4ccc(Cl)cc34)no2)c2cc(Br)ccc21`, for which the MIC in the data set with Staphylococcus aureus [1], against Staphylococcus aureus [2], against Pseudomonas aeruginosa [3] and against Escherichia coli [4] was more than 100 µg/mL throughout. In addition, the MBIC50 amounted to 27.7 µM in the data set with Staphylococcus aureus [5] and 53.9 µM in the data set on Pseudomonas aeruginosa [7]. Also, the inhibition at 100 µg/mL in the data set on Staphylococcus aureus [6] and in the data set with Escherichia coli [9] was less than 15% in each case.
Consider `Cn1cc(C(=O)c2nc(-c3cn(C)c4ccccc34)no2)c2cc(Br)ccc21`, for which the MIC in the data set with Staphylococcus aureus [1], with Staphylococcus aureus [2], with Pseudomonas aeruginosa [3] and with Escherichia coli [4] was more than 100 µg/mL in each case. Also, the MBIC50 in the data set on Staphylococcus aureus [5] is 39.5 µM; in the data set with Pseudomonas aeruginosa [7], 39.3 µM; in the data set with Escherichia coli [8], 39.3 µM. In the data set with Staphylococcus aureus [6], this compound returned an inhibition at 100 µg/mL of less than 15%.
Regarding `Cn1cc(C(=O)c2nc(-c3cn(C)c4ccc(Cl)cc34)no2)c2ccccc21`, the MIC with Staphylococcus aureus [1], against Staphylococcus aureus [2], against Pseudomonas aeruginosa [3] and in the data set on Escherichia coli [4] was more than 100 µg/mL in each case. Besides, the results for the MBIC50 in the data set on Staphylococcus aureus [5], with Pseudomonas aeruginosa [7] and with Escherichia coli [8] were 47.6 µM, 53.5 µM and 59.6 µM, respectively. The inhibition at 100 µg/mL in the data set on Staphylococcus aureus [6] is less than 15%.
As for `Cn1cc(C(=O)c2nc(-c3cn(C)c4ccc(F)cc34)no2)c2cc(Br)ccc21`, the MIC in the data set on Staphylococcus aureus [1], in the data set with Staphylococcus aureus [2], in the data set on Pseudomonas aeruginosa [3] and against Escherichia coli [4] was more than 100 µg/mL throughout. Besides, the figures for the MBIC50 in the data set with Staphylococcus aureus [5] and with Escherichia coli [8] were 29.6 µM and 45.7 µM, respectively. Moreover, the inhibition at 100 µg/mL in the data set with Staphylococcus aureus [6] and in the data set on Pseudomonas aeruginosa [10] was less than 15% throughout.
`COc1ccc2c(c1)c(C(=O)c1nc(-c3cn(C)c4ccc(Br)cc34)no1)cn2C`: the MIC against Staphylococcus aureus [1], against Staphylococcus aureus [2], with Pseudomonas aeruginosa [3] and against Escherichia coli [4] was more than 100 µg/mL throughout. The same compound gave an MBIC50 in the data set on Staphylococcus aureus [5] of 41 µM. For the same compound, the inhibition at 100 µg/mL in the data set on Staphylococcus aureus [6], with Pseudomonas aeruginosa [10] and with Escherichia coli [9] was less than 15% each time.
As to `COc1ccc2c(c1)c(C(=O)c1nc(-c3cn(C)c4ccc(F)cc34)no1)cn2C`, the MIC in the data set on Staphylococcus aureus [1], against Staphylococcus aureus [2], in the data set on Pseudomonas aeruginosa [3] and against Escherichia coli [4] was more than 100 µg/mL throughout. Further, the results for the MBIC50 in the data set with Staphylococcus aureus [5] and with Pseudomonas aeruginosa [7] were 39.6 µM and 11.6 µM, respectively. The inhibition at 100 µg/mL with Staphylococcus aureus [6] and in the data set on Escherichia coli [9] was less than 15% in each case.
In the case of `Cn1cc(C(=O)c2nc(-c3cn(C)c4ccc(F)cc34)no2)c2ccccc21`, the minimal inhibitory concentration (MIC) with Staphylococcus aureus [1], in the data set with Staphylococcus aureus [2], in the data set on Pseudomonas aeruginosa [3] and against Escherichia coli [4] was more than 100 µg/mL throughout. Besides, the MBIC50 with Staphylococcus aureus [5] was found to be 30.4 µM; in the data set on Pseudomonas aeruginosa [7] it was 24 µM. For the same compound, the inhibition at 100 µg/mL in the data set on Staphylococcus aureus [6] and in the data set on Escherichia coli [9] was less than 15% throughout.
Turning to `COc1ccc2c(c1)c(-c1noc(C(=O)c3cn(C)c4ccc(F)cc34)n1)cn2C`, the MIC in the data set with Staphylococcus aureus [1], against Staphylococcus aureus [2], in the data set on Pseudomonas aeruginosa [3] and in the data set with Escherichia coli [4] was more than 100 µg/mL each time. Further, the values for the MBIC50 in the data set on Staphylococcus aureus [5] and in the data set on Pseudomonas aeruginosa [7] were 14.8 µM and 52.1 µM, respectively. The inhibition at 100 µg/mL with Staphylococcus aureus [6] and with Escherichia coli [9] was less than 15% throughout.
Consider `Cn1cc(C(=O)c2nc(-c3cn(C)c4ccc(Br)cc34)no2)c2ccccc21`, for which the MIC against Staphylococcus aureus [1], with Staphylococcus aureus [2], against Pseudomonas aeruginosa [3] and in the data set with Escherichia coli [4] was more than 100 µg/mL throughout. Further, the inhibition at 100 µg/mL in the data set on Staphylococcus aureus [11], in the data set on Staphylococcus aureus [6] and with Escherichia coli [9] was less than 15% in each case. This compound also had an MBIC50 in the data set with Pseudomonas aeruginosa [7] of 78.6 µM.
As to `COc1ccc2c(c1)c(C(=O)c1nc(-c3cn(C)c4ccc(OC)cc34)no1)cn2C`, the MIC in the data set with Staphylococcus aureus [1], in the data set on Staphylococcus aureus [2], in the data set with Pseudomonas aeruginosa [3] and against Escherichia coli [4] was more than 100 µg/mL in each case. Besides, the MBIC50 in the data set on Staphylococcus aureus [5] amounted to 2.2 µM; in the data set on Pseudomonas aeruginosa [7] it was 74.7 µM. For the same compound, the inhibition at 100 µg/mL in the data set on Staphylococcus aureus [6] and in the data set with Escherichia coli [9] was less than 15% throughout. Moreover, in data set [12], the IC50 worked out at 2200 nM. Also, the Activity result in the data set on HS27 is “Non-Toxic”.
As for `Cn1cc(C(=O)c2nc(-c3cn(C)c4ccc(Br)cc34)no2)c2cc(F)ccc21`, the MIC against Staphylococcus aureus [1], with Staphylococcus aureus [2], against Pseudomonas aeruginosa [3] and with Escherichia coli [4] was more than 100 µg/mL throughout. This compound also came in with an MBIC50 in the data set with Staphylococcus aureus [5] of 9.7 µM. Further, the inhibition at 100 µg/mL with Staphylococcus aureus [6], in the data set on Pseudomonas aeruginosa [10] and with Escherichia coli [9] was less than 15% each time. The same compound returned an IC50 in data set [12] of 2200 nM. The Activity result in the data set with HS27 is reported as “Non-Toxic”.
With `Cn1cc(C(=O)c2nc(-c3cn(C)c4ccc(F)cc34)no2)c2cc(F)ccc21`, the MIC against Staphylococcus aureus [1], against Staphylococcus aureus [2], in the data set with Pseudomonas aeruginosa [3] and against Escherichia coli [4] was more than 100 µg/mL in each case. Also, the values for the MBIC50 in the data set with Staphylococcus aureus [5] and with Pseudomonas aeruginosa [7] were 0.7 µM and 49.7 µM, respectively. The inhibition at 100 µg/mL in the data set on Staphylococcus aureus [6] and with Escherichia coli [9] was less than 15% each time. Besides, half-maximal inhibition in [12] (IC50) was put at 10400 nM. Moreover, the Activity entry with HS27 is on record as “Non-Toxic”.
For the compound `COc1ccc2c(c1)c(-c1noc(C(=O)c3cn(C)c4ccc(Br)cc34)n1)cn2C`, the MIC in the data set with Staphylococcus aureus [1], against Staphylococcus aureus [2], against Pseudomonas aeruginosa [3] and with Escherichia coli [4] was more than 100 µg/mL throughout. The MBIC50 in the data set with Staphylococcus aureus [5] was determined as 19.1 µM; in the data set with Pseudomonas aeruginosa [7], 28.1 µM. For the same compound, the inhibition at 100 µg/mL in the data set with Staphylococcus aureus [6] and with Escherichia coli [9] was less than 15% throughout.
Consider `COc1ccc2c(c1)c(C(=O)c1nc(-c3cn(C)c4ccc(Cl)cc34)no1)cn2C`, for which the MIC against Staphylococcus aureus [1], with Staphylococcus aureus [2], with Pseudomonas aeruginosa [3] and with Escherichia coli [4] was more than 100 µg/mL in each case. Further, the inhibition at 100 µg/mL in the data set with Staphylococcus aureus [11], with Staphylococcus aureus [6], in the data set with Pseudomonas aeruginosa [10] and with Escherichia coli [9] was less than 15% in each case.
For the compound `COc1ccc2c(c1)c(-c1noc(C(=O)c3cn(C)c4ccccc34)n1)cn2C`, the MIC in the data set with Staphylococcus aureus [1], against Staphylococcus aureus [2], in the data set with Pseudomonas aeruginosa [3] and in the data set on Escherichia coli [4] was more than 100 µg/mL each time. Besides, the inhibition at 100 µg/mL in the data set with Staphylococcus aureus [11], with Staphylococcus aureus [6] and in the data set on Escherichia coli [9] was less than 15% each time. The same compound showed an MBIC50 with Pseudomonas aeruginosa [7] of 47.4 µM.
Regarding `Cn1cc(C(=O)c2nc(-c3cn(C)c4ccccc34)no2)c2ccccc21`, the MIC in the data set on Staphylococcus aureus [1], in the data set with Staphylococcus aureus [2], in the data set on Pseudomonas aeruginosa [3] and in the data set with Escherichia coli [4] was more than 100 µg/mL in each case. Besides, the MBIC50 in the data set with Staphylococcus aureus [5] was found to be 14 µM; with Staphylococcus aureus [13] it was 53.6 µM; in the data set with Pseudomonas aeruginosa [7] it was 36.7 µM; with Escherichia coli [8], 72.1 µM.
